From patent publication US5453369A, “Enzyme for producing novel cyclooisomaltooligosaccharides” (Kikkoman Corporation, priority 1992, dated 1995)

Experiments:
[1] = discoloration / decomposition temperature (melting point measuring instrument); assay type: physicochemical; conditions: definite melting points could not be determined
From the text: 3. The definite melting points of the present compounds could not be determined in a melting point measuring instrument manufactured by Yanagimoto Co., Ltd. Their discoloration temperature ranges together with decomposition temperatures are as follows: […]

[2] = system: Glucodextranase, i.e. exo-type dextranase; test: enzymatic hydrolysis with glucodextranase (exo-type dextranase); assay type: biochemical; conditions: 1% solution; FIG. 2
From the text: 10. Glucodextranase, i.e. exo-type dextranase, was allowed to act on the present compounds (1% solution), but they were not hydrolyzed at all as shown in FIG. 2.

Compound | discoloration temperature ranges together with decomposition temperatures [1] | hydrolysis by glucodextranase [2]
O[C@@H]1[C@@H](O)[C@H]2OC[C@H]3O[C@H](OC[C@H]4O[C@H](OC[C@H]5O[C@H](OC[C@H]6O[C@H](OC[C@H]7O[C@H](OC[C@H]8O[C@H](OC[C@@H](O2)[C@H]1O)[C@H](O)[C@@H](O)[C@@H]8O)[C@H](O)[C@@H](O)[C@@H]7O)[C@H](O)[C@@H](O)[C@@H]6O)[C@H](O)[C@@H](O)[C@@H]5O)[C@H](O)[C@@H](O)[C@@H]4O)[C@H](O)[C@@H](O)[C@@H]3O [Cycloisomaltoheptaose, cycloisomaltoheptaose] | 234-238 °C | 
O[C@@H]1[C@@H](O)[C@H]2OC[C@H]3O[C@H](OC[C@H]4O[C@H](OC[C@H]5O[C@H](OC[C@H]6O[C@H](OC[C@H]7O[C@H](OC[C@H]8O[C@H](OC[C@H]9O[C@H](OC[C@@H](O2)[C@H]1O)[C@H](O)[C@@H](O)[C@@H]9O)[C@H](O)[C@@H](O)[C@@H]8O)[C@H](O)[C@@H](O)[C@@H]7O)[C@H](O)[C@@H](O)[C@@H]6O)[C@H](O)[C@@H](O)[C@@H]5O)[C@H](O)[C@@H](O)[C@@H]4O)[C@H](O)[C@@H](O)[C@@H]3O [Cycloisomaltooctaose, cycloisomaltooctaose] | 238-241 °C | 
O[C@@H]1[C@@H](O)[C@H]2OC[C@H]3O[C@H](OC[C@H]4O[C@H](OC[C@H]5O[C@H](OC[C@H]6O[C@H](OC[C@H]7O[C@H](OC[C@H]8O[C@H](OC[C@H]9O[C@H](OC[C@H]%10O[C@H](OC[C@@H](O2)[C@H]1O)[C@H](O)[C@@H](O)[C@@H]%10O)[C@H](O)[C@@H](O)[C@@H]9O)[C@H](O)[C@@H](O)[C@@H]8O)[C@H](O)[C@@H](O)[C@@H]7O)[C@H](O)[C@@H](O)[C@@H]6O)[C@H](O)[C@@H](O)[C@@H]5O)[C@H](O)[C@@H](O)[C@@H]4O)[C@H](O)[C@@H](O)[C@@H]3O [Cycloisomaltononaose, cycloisomaltononaose] | 239-242 °C | 

Next, values leading:

discoloration temperature ranges together with decomposition temperatures [1] | hydrolysis by glucodextranase [2] | Compound
 | completely hydrolyzed | OC[C@H]1O[C@H](OC[C@H]2O[C@H](OC[C@H]3O[C@H](OC[C@H]4O[C@H](OC[C@H]5O[C@H](OC[C@H]6O[C@H](OC[C@H]7OC(O)[C@H](O)[C@@H](O)[C@@H]7O)[C@H](O)[C@@H](O)[C@@H]6O)[C@H](O)[C@@H](O)[C@@H]5O)[C@H](O)[C@@H](O)[C@@H]4O)[C@H](O)[C@@H](O)[C@@H]3O)[C@H](O)[C@@H](O)[C@@H]2O)[C@H](O)[C@@H](O)[C@@H]1O (some centres unmarked) [isomaltoheptaose]
 | completely hydrolyzed | OC[C@H]1O[C@H](OC[C@H]2O[C@H](OC[C@H]3O[C@H](OC[C@H]4O[C@H](OC[C@H]5O[C@H](OC[C@H]6OC(O)[C@H](O)[C@@H](O)[C@@H]6O)[C@H](O)[C@@H](O)[C@@H]5O)[C@H](O)[C@@H](O)[C@@H]4O)[C@H](O)[C@@H](O)[C@@H]3O)[C@H](O)[C@@H](O)[C@@H]2O)[C@H](O)[C@@H](O)[C@@H]1O (some centres unmarked) [isomaltohexaose]
